The text below walks through data of PubChem BioAssay AID1259407 (Chemical Carcinogenesis Research Information System (CCRIS), 2018).

For this series, the system named is CCRIS mutagenicity, Ames/micronucleus/aberration tests. The series is described as follows: CCRIS mutagenicity studies.
The mark [1] stands for this setting: Test System: AMES SALMONELLA TYPHIMURIUM, Strain/Indicator: TA98, Metabolic Activation: NONE, Method: PREINCUBATION
[2] abbreviates: Test System: AMES SALMONELLA TYPHIMURIUM, Strain/Indicator: TA98, Metabolic Activation: RAT, LIVER, S-9, KANECHLOR 500, Method: PREINCUBATION
The mark [3] stands for this setting: Test System: AMES SALMONELLA TYPHIMURIUM, Strain/Indicator: TA100, Metabolic Activation: RAT, LIVER, S-9, KANECHLOR 500, Method: PREINCUBATION
[4] abbreviates: Test System: AMES SALMONELLA TYPHIMURIUM, Strain/Indicator: TA100, Metabolic Activation: NONE, Method: STANDARD PLATE.
Where [5] appears, read: Test System: AMES SALMONELLA TYPHIMURIUM, Strain/Indicator: TA98, Metabolic Activation: NONE, Method: STANDARD PLATE.
Where [6] appears, read: Test System: AMES SALMONELLA TYPHIMURIUM, Strain/Indicator: TA100, Metabolic Activation: NONE, Method: PREINCUBATION

Activity calls are given as the source filed them. The rule behind the calls is not given here.

On to `COc1cc(NS(C)(=O)=O)ccc1Nc1c2ccc(N=[N+]=[N-])cc2nc2c(C)cccc12`, for which the mutagenic call (Test System: AMES SALMONELLA TYPHIMURIUM, Strain/Indicator: TA1537, Metabolic Activation: NONE, Method: STANDARD PLATE) is “active; positive”.
For the compound `O=C(O)c1cc([N+](=O)[O-])ccc1[N+](=O)[O-]`, the mutagenic call under setting [1] is “active; positive”, the mutagenic call under setting [2] is “active; positive” and the mutagenic call under setting [3] was “inactive; negative”.
As to `COC1OC(=O)C(Cl)=C1C(Cl)Cl` (stereo not given), under setting [4], the mutagenic call was “active; positive”.
In the case of `O=[N+]([O-])c1cccc(CO/N=C/c2nc3cc([N+](=O)[O-])ccc3n2Cc2ccc(Cl)cc2)c1`, the mutagenic call under setting [5] was “inactive; negative”; the mutagenic call (Test System: AMES SALMONELLA TYPHIMURIUM, Strain/Indicator: TA98, Metabolic Activation: RAT, LIVER, S-9, PHENOBARBITAL AND BETA-NAPHTHOFLAVONE, Method: STANDARD PLATE) is “inactive; negative”; the mutagenic call under setting [4] is “inactive; negative”; the mutagenic call (Test System: AMES SALMONELLA TYPHIMURIUM, Strain/Indicator: TA100, Metabolic Activation: RAT, LIVER, S-9, PHENOBARBITAL AND BETA-NAPHTHOFLAVONE, Method: STANDARD PLATE) is “inactive; negative”.
Take `[N-]=[N+]=NC[C@H]1O[C@H](O)[C@@H](O)[C@H](O)[C@@H]1O`: the mutagenic call under setting [5] is “inactive; negative” and the mutagenic call under setting [4] is “active; positive”.
For `O=C(OC1CCCCC1)c1ccccc1C(=O)OC1CCCCC1`, the mutagenic call by setting is: (Test System: AMES SALMONELLA TYPHIMURIUM, Strain/Indicator: TA98, Metabolic Activation: HAMSTER, LIVER, S-9, AROCLOR 1254 (10%), Method: PREINCUBATION) “inactive; negative”; under setting [1], “inactive; negative”; (Test System: AMES SALMONELLA TYPHIMURIUM, Strain/Indicator: TA98, Metabolic Activation: RAT, LIVER, S-9, AROCLOR 1254 (10%), Method: PREINCUBATION) “inactive; negative”; (Test System: AMES SALMONELLA TYPHIMURIUM, Strain/Indicator: TA100, Metabolic Activation: HAMSTER, LIVER, S-9, AROCLOR 1254 (10%), Method: PREINCUBATION) “inactive; negative”; under setting [6], “inactive; negative”; (Test System: AMES SALMONELLA TYPHIMURIUM, Strain/Indicator: TA100, Metabolic Activation: RAT, LIVER, S-9, AROCLOR 1254 (10%), Method: PREINCUBATION) “inactive; negative”. For the same compound, the mutagenic call (Test System: AMES SALMONELLA TYPHIMURIUM, Strain/Indicator: TA1535, Metabolic Activation: HAMSTER, LIVER, S-9, AROCLOR 1254 (10%), Method: PREINCUBATION) was “inactive; negative”; the mutagenic call (Test System: AMES SALMONELLA TYPHIMURIUM, Strain/Indicator: TA1535, Metabolic Activation: NONE, Method: PREINCUBATION) is “inactive; negative”; the mutagenic call (Test System: AMES SALMONELLA TYPHIMURIUM, Strain/Indicator: TA1535, Metabolic Activation: RAT, LIVER, S-9, AROCLOR 1254 (10%), Method: PREINCUBATION) was “inactive; negative”; the mutagenic call (Test System: AMES SALMONELLA TYPHIMURIUM, Strain/Indicator: TA1537, Metabolic Activation: HAMSTER, LIVER, S-9, AROCLOR 1254 (10%), Method: PREINCUBATION) was “inactive; negative”; the mutagenic call (Test System: AMES SALMONELLA TYPHIMURIUM, Strain/Indicator: TA1537, Metabolic Activation: NONE, Method: PREINCUBATION) is “inactive; negative”; the mutagenic call (Test System: AMES SALMONELLA TYPHIMURIUM, Strain/Indicator: TA1537, Metabolic Activation: RAT, LIVER, S-9, AROCLOR 1254 (10%), Method: PREINCUBATION) is “inactive; negative”.
For `COc1ccc2c(cc3c4c(cc5c(c42)OCO5)C(=O)C(=O)N3C)c1OC`, the mutagenic call (Test System: AMES SALMONELLA TYPHIMURIUM, Strain/Indicator: TA98, Metabolic Activation: RAT, LIVER, S-9, PHENOBARBITAL AND BETA-NAPHTHOFLAVONE, Method: PREINCUBATION) was “active; positive” and the mutagenic call (Test System: AMES SALMONELLA TYPHIMURIUM, Strain/Indicator: TA100, Metabolic Activation: RAT, LIVER, S-9, PHENOBARBITAL AND BETA-NAPHTHOFLAVONE, Method: PREINCUBATION) is “active; positive”.
Take `CC(O)CN(N=O)C(N)=O` (stereo not given): the mutagenic call (Test System: E. COLI B, Strain/Indicator: H/R30R, Metabolic Activation: NONE) was “active; positive” and the mutagenic call (Test System: E. COLI B, Strain/Indicator: HS30R, Metabolic Activation: NONE) was “active; positive”.
Regarding `Cc1ccc(N)cc1[N+](=O)[O-]`, the mutagenic call is, setting by setting: (Test System: AMES SALMONELLA TYPHIMURIUM, Strain/Indicator: TA98, Metabolic Activation: NONE, Method: SUSPENSION/PLATE) “inactive; negative”; under setting [2], “active; positive”; (Test System: AMES SALMONELLA TYPHIMURIUM, Strain/Indicator: TA98, Metabolic Activation: RAT, LIVER, S-9, PCB, Method: PREINCUBATION) “inactive; negative”; (Test System: AMES SALMONELLA TYPHIMURIUM, Strain/Indicator: TA98, Metabolic Activation: RAT, LIVER, S-9, PHENOBARBITAL AND 5,6-BENZOFLAVONE, Method: SUSPENSION/PLATE) “inactive; negative”; under setting [6], “active; positive”; (Test System: AMES SALMONELLA TYPHIMURIUM, Strain/Indicator: TA100, Metabolic Activation: NONE, Method: SUSPENSION/PLATE) “inactive; negative”. For the same compound, the mutagenic call under setting [3] is “active; positive” and the mutagenic call (Test System: AMES SALMONELLA TYPHIMURIUM, Strain/Indicator: TA100, Metabolic Activation: RAT, LIVER, S-9, PHENOBARBITAL AND 5,6-BENZOFLAVONE, Method: SUSPENSION/PLATE) was “inactive; negative”.
`O=[N+]([O-])c1cccc(Cl)c1F`: where the note is “End Point: IN VITRO CHROMOSOMAL ABERRATIONS, Test System: CHL CELLS, Metabolic Activation: RAT, LIVER, S-9, SODIUM PHENOBARBITAL AND 5,6-BENZOFLAVONE”, the mutagenic call was “active; positive (structural changes)”.
For `Nc1cc2cccc3ccc4cccc1c4c32`, the mutagenic call (Test System: AMES SALMONELLA TYPHIMURIUM, Strain/Indicator: TA98, Metabolic Activation: RAT, LIVER, S-9, AROCLOR 1254 (2 OR 4%), Method: STANDARD PLATE) is “active; positive”; the mutagenic call (Test System: AMES SALMONELLA TYPHIMURIUM, Strain/Indicator: TA100, Metabolic Activation: RAT, LIVER, S-9, AROCLOR 1254 (2%), Method: STANDARD PLATE) is “active; positive”; the mutagenic call (Test System: AMES SALMONELLA TYPHIMURIUM, Strain/Indicator: TA1535, Metabolic Activation: RAT, LIVER, S-9, AROCLOR 1254 (2%), Method: STANDARD PLATE) is “inactive; negative”; the mutagenic call (Test System: AMES SALMONELLA TYPHIMURIUM, Strain/Indicator: TA1537, Metabolic Activation: RAT, LIVER, S-9, AROCLOR 1254 (2%), Method: STANDARD PLATE) was “active; positive”.
